Results published in paper PMC11938129, “Gravacin as an inhibitor of the auxin transport-activating protein kinase D6PK in Arabidopsis” (Frontiers in Plant Science, 2025).

Key:
D6PK (His-D6PK) [1] = target: T1, D6PK (His-D6PK) (Arabidopsis thaliana, UniProt Q9FG74); test: in vitro kinase assay, […]ATP autoradiography of His-PIN1-HL phosphorylation; assay type: biochemical; details: partial, dose-dependent inhibition; substrate His-PIN1-HL; 10 mM ATP (so in the source), 10 mM MgCl2, 1 mM DTT, Tris-HCl pH 7.5, 25 °C, 60 min
T1 construct: His-tagged recombinant D6PK, expressed in E. coli BL21 (DE3), Ni-NTA purified
T1 sequence (Q9FG74 1-498): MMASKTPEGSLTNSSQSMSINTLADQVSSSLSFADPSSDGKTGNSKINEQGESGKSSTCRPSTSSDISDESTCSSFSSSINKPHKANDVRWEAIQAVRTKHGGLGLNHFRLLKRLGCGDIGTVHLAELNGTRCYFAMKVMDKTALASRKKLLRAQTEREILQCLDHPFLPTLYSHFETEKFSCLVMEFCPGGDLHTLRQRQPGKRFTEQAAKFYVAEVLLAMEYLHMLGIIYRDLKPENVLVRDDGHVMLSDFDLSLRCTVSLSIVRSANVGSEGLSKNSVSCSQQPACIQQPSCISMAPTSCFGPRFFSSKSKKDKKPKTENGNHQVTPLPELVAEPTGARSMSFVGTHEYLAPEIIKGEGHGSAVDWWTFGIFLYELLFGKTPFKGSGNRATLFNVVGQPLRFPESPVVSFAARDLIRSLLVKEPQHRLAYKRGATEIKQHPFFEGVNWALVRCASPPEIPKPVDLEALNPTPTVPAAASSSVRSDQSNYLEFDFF

D6PK (His-D6PK) [2] = target: T1, D6PK (His-D6PK); test: surface plasmon resonance (Biacore 8K), steady state affinity model; assay type: binding

Kd (D6PK (His-D6PK) [2]): ~334 µM
Compound: O=C(O)C=Cc1ccc(-c2ccc(Cl)c(Cl)c2)o1 [gravacin, 3-(5-[3,4-dichlorophenyl]-2-furyl)-acrylic acid]
in vitro kinase assay, [32P]ATP autoradiography of His-PIN1-HL phosphorylation (D6PK (His-D6PK) [1]): His-D6PK-induced phosphorylation of His-PIN1 was partially suppressed by gravacin in a dose-dependent manner
